# Measured values as given in patent US4294832A, “Tetrahydroisoquinoline compounds and a pharmaceutical composition thereof” (Tanabe Seiyaku Co., Ltd., priority 1979, dated 1981).
# Several values for one entry are separate records, joined by “and”; a condition that tells them apart may be missing. Equal values may be shown once. Where a name gives a salt, the structure may show the parent alone. Read-outs that look alike come from different tables or passages of the source.
# Tests used:
# [1] = test system: angiotensin-converting enzyme (ACE); assay: ACE-inhibitory activity in vivo (pressor response to angiotensin I in anesthetized normotensive rats); set-up: species or system rat; details: 0.1 mg/kg i.v.; for Duration of activity: ACE inhibition in vivo; for ACE-inhibitory activity in vivo: percentage inhibition of ACE activity, angiotensin I 300 ng/kg i.v.
# Description: ACE-inhibitory activity in vivo:
# Normotensive rats weighing 300-400 g were anesthetized with urethane (1.5 g/kg, s.c.), and angiotensin I (300 ng/kg) was injected into the femoral vein of the rats. The pressor response to angiotensin I was measured with a pressure transducer connected to the carotid artery. Then, a test compound was injected intravenously thereto at a dose of 0.1 mg/kg, and angiotensin I (300 ng/kg) was further injected intravenously at intervals. The ACE-inhibitory activity of the test compound was estimated from the pressur responses to angiotensin I which were obtained before and after intravenous injection of the test compound.
# *percentage inhibition of ACE activity in vivo
# [2] = molecular target: T1, angiotensin-converting enzyme (ACE) isolated from pig's renal cortex (Sus scrofa, UniProt F1RRW5); assay: ACE-inhibitory activity in vitro (histidyl-leucine released from hippuryl-histidyl-leucine); assay type: biochemical
# T1 construct: isolated from pig's renal cortex; from tissue; host or cells: pig renal cortex
# T1 sequence (F1RRW5 34-1309): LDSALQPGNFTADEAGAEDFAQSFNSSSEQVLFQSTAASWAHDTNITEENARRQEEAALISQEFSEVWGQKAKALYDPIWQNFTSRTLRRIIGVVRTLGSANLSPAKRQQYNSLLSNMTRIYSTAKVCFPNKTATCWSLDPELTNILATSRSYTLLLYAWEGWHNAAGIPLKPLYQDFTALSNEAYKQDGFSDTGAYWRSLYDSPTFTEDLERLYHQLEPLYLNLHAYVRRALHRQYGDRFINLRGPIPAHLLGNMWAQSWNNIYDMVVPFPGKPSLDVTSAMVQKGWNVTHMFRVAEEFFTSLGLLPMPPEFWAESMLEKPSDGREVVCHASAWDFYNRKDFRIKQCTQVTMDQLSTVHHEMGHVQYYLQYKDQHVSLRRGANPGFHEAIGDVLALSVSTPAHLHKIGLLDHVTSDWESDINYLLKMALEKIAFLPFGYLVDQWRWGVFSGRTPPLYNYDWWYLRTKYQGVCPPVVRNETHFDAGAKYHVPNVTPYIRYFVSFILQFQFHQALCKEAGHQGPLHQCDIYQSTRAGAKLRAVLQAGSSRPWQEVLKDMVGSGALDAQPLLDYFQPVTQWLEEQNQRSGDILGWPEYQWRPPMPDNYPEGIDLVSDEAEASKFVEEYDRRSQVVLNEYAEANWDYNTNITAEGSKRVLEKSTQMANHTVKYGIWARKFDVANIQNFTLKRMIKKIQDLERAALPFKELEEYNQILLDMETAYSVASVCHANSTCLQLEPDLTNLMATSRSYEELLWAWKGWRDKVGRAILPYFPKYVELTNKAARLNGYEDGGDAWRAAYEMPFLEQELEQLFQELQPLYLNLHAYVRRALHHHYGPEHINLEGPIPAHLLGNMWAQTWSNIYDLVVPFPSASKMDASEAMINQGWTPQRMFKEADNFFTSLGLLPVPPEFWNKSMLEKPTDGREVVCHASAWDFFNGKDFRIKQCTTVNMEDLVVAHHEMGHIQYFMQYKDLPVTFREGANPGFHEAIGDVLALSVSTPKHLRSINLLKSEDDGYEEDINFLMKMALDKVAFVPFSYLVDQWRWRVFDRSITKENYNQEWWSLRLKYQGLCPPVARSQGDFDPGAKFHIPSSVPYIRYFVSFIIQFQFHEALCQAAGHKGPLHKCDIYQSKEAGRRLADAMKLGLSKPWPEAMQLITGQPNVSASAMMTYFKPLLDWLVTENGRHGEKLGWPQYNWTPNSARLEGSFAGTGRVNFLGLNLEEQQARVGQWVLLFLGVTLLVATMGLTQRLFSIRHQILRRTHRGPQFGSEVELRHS
# Description: ACE-inhibitory activity in vitro:
# 50 μl of a solution containing 0.01 mole/liter of hippuryl-histidyl-leucine (substrate) and 0-100 μl of a test compound solution were added to 300 μl of a 0.2M trishydrochloric acid buffer solution containing 0.2 mole/liter of sodium chloride. The total volume of said mixture was adjusted to 450 μl with water. Then, 50 μl of angiotensin -converting enzyme (ACE) isolated from pig's renal cortex were added to the mixture, and the mixture was allowed to stand at 37° C. for 20 minutes. The amount of histidyl-leucine produced from the substrate by the action of ACE was assayed microbiologically by the use of Leuconostoc mesenteroides P-60, and the ACE-inhibitory activity of the test compound was estimated therefrom.
# *I50 = a dose required to induce 50% inhibition of the ACE activity
# [3] = test system: spontaneously hypertensive rats (SHR); assay: Hypotensive activity in SHR (systolic blood pressure, tail plethysmographic technique); assay type: in vivo, rat; details: 50 mg/kg orally; for Decrease in blood pressure (-Δ mm Hg): SHR fasted overnight, systolic; for Duration of action: hypotensive action, SHR
# Description: Hypotensive activity in SHR:
# A test compound (dose: 50 mg/kg) suspended in an aqueous carboxymethylcellulose solution was administered orally to spontaneously hypertensive rats (SHR) fasted overnight. The systolic blood pressure of the rats was measured by the tail plethysmographic technique (The Journal of Laboratory and Clinical Medicine 78(1971), page 957). The hypotensive activity of the test compound was estimated from the decreased level of blood pressure.
# [4] = dose required to induce 50% inhibition of the ACE activity, pig renal cortex ACE, 37° C., 20 minutes, read-out: ACE-inhibitory activity in vitro I50
"IC50 [2, 4] [nM]",Compound,Duration of activity [1] [min],ACE-inhibitory activity in vivo [1],other results
–,"COC(=O)CCN(C(=O)N1Cc2ccccc2C[C@H]1C(=O)O)C(C)C [3(S)-2-[N-isopropyl-N-(2-methoxycarbonylethyl)carbamoyl]-1,2,3,4-tetrahydroisoquinoline-3-carboxylic acid sodium salt]",–,–,"Duration of activity ([1]; sodium salt, 0.1 mg/kg): > 60 min"
35,"C#CCN(CCC(=O)O)C(=O)N1Cc2ccccc2C[C@H]1C(=O)O [3(S)-2-[N-propargyl-N -(2-carboxyethyl)carbamoyl]-1,2,3,4-tetrahydroisoquinoline-3-carboxylic acid di-L-lysine salt]",–,–,–
–,"CCCCOC(=O)CCN(C(=O)N1Cc2ccccc2C[C@H]1C(=O)O)C(C)C [3(S)-2-[N-isopropyl-N-(2-n-butoxycarbonylethyl)carbamoyl]-1,2,3,4-tetrahydroisoquinoline-3-carboxylic acid L-lysine salt]",> 60,> 60%,–
–,"CCOC(=O)CCN(CC)C(=O)N1Cc2ccccc2C[C@H]1C(=O)O.NCCCC[C@H](N)C(=O)O [3(S)-2-[N-ethyl-N-(2-n-ethoxycarbonylethyl)carbamoyl]-1,2,3,4-tetrahydroisoquinoline-3-carboxyleic acid L-lysine salt]",–,–,Decrease in blood pressure (-Δ mm Hg) [3]: 25 mm Hg; Duration of action [3]: > 6 h
140,"C=CCN(CCC(=O)O)C(=O)N1Cc2ccccc2C[C@H]1C(=O)O [3(S)-2-[N-allyl-N-(2-carboxyethyl)carbamoyl]-1,2,3,4-tetrahydroisoquinoline-3-carboxylic acid di-L-lysine salt]",–,–,–
–,"CC(C)N(CCC(=O)O)C(=O)N1Cc2ccccc2C[C@H]1C(=O)O [3(S)-2-[N-isopropyl-N-(2-carboxyethyl)carbamoyl]-1,2,3,4-tetrahydroisoquinoline-3-carboxylic acid di-dicyclohexylamine salt]",> 60,> 60%,–
–,"COC(=O)CCN(C(=O)N1Cc2ccccc2C[C@H]1C(=O)O)C(C)C [3(S)-2-[N-isopropyl-N-(2-methoxycarbonylethyl)carbamoyl]-1,2,3,4-tetrahydroisoquinoline-3-carboxylic acid L-lysine salt]",–,40 - 60%,Decrease in blood pressure (-Δ mm Hg) [3]: 36 mm Hg; Duration of action [3]: > 6 h; Duration of activity ([1]; 0.1 mg/kg): 30 to 60 min
11,"CCN(CCC(=O)O)C(=O)N1Cc2ccccc2C[C@H]1C(=O)O [3(S)-2-[N-ethyl-N-(2-carboxyethyl)carbamoyl]-1,2,3,4-tetrahydroisoquinoline-3-carboxylic acid calcium salt]",–,–,"IC50 ([2]; in vitro, ACE isolated from pig's kidney, read-out: 50% inhibition of the activity of the enzyme at a concentration of): ~11 nM"
610,"CN(CCC(=O)O)C(=O)N1Cc2ccccc2C[C@H]1C(=O)O [3(S)-2-[N-methyl-N-(2-carboxyethyl)carbamoyl]-1,2,3,4-tetrahydroisoquinoline-3-carboxylic acid 2 dicyclohexylamine salt]",–,–,–
–,"CCOC(=O)CCN(C(=O)N1Cc2ccccc2C[C@H]1C(=O)O)C(C)C [3(S)-2-[N-isopropyl-N-(2-ethoxycarbonylethyl)carbamoyl]-1,2,3,4-tetrahydroisoquinoline-3-carboxylic acid L-lysine salt]",> 60,> 60%,–
29,"CC(C)N(CCC(=O)O)C(=O)N1Cc2ccccc2C[C@H]1C(=O)O [3(S)-2-[N-isopropyl-N-(2-carboxyethyl)carbamonyl]-1,2,3,4-tetrahydroisoquinoline-3-carboxylic acid di-L-lysine salt]",–,–,–
21,"CCN(CCC(=O)O)C(=O)N1Cc2ccccc2C[C@H]1C(=O)O [3(S)-2-[N-ethyl-N-2-carboxyethyl)carbamoyl]-1,2,3,4-tetrahydroisoquinoline-3-carboxylic acid di-sodium salt]",–,–,–
550,"CCCN(CCC(=O)O)C(=O)N1Cc2ccccc2C[C@H]1C(=O)O [3(S)-2-[N-n-propyl-N-(2-carboxyethyl)carbamoyl]-1,2,3,4-tetrahydroisoquinoline-3-carboxylic acid 2 dicyclohexylamine salt]",–,–,–
–,"CCOC(=O)CCN(CC)C(=O)N1Cc2ccccc2C[C@H]1C(=O)O [3(S)-2-[N-ethyl-N-(2-ethoxycarbonylethyl)carbamoyl]-1,2,3,4-tetrahydroisoquinoline-3-carboxylic acid 1/2 calcium salt]",–,–,Decrease in blood pressure (-Δ mm Hg) [3]: 26 mm Hg; Duration of action [3]: > 6 h
140,"O=C(O)CCN(C(=O)N1Cc2ccccc2C[C@H]1C(=O)O)C1CC1 [3(S)-2-[N-cyclopropyl-N-(2-carboxyethyl)-carbamoyl]-1,2,3,4-tetrahydroisoquinoline-3-carboxylic acid di-dicyclohexylamine salt]",–,–,–
–,"CCCCOC(=O)CCN(CC)C(=O)N1Cc2ccccc2C[C@H]1C(=O)O [3(S)-2-[N-ethyl-N-(2-n-butoxycarbonylethyl)carbamoyl]-1,2,3,4-tetrahydroisoquinoline-3-carboxylic acid L-lysine salt]",> 60,–,ACE-inhibitory activity in vivo ([1]; 0.1 mg/kg): 80% and > 60%
–,"CCOC(=O)CCN(C)C(=O)N1Cc2ccccc2C[C@H]1C(=O)O [3(S)-2-[N-methyl-N-(2-ethoxycarbonylethyl)carbamoyl]-1,2,3,4-tetrahydroisoquinoline-3-carboxylic acid L-lysine salt]",> 60,40 - 60%,–
–,"CCOC(=O)CCN(CC)C(=O)N1Cc2ccccc2C[C@H]1C(=O)O [3(S)-2-[N-ethyl-N-(2-ethoxycarbonylethyl)carbamoyl]-1,2,3,4-tetrahydroisoquinoline-3-carboxylic acid L-lysine salt]",> 60,> 60%,–
